Source: US4431634A, “Prenatal iron supplements” (American Cyanamid Company, priority 1981, dated 1984)
Where two headings read alike, the source gives them in different places. Blank lines part the entries; values can stand above or below the molecule they belong to.

Columns and labels:
[1] = human, in vivo
Method: (§1) The absorption of iron was established by collection of venous blood samples collected by hypodermic syringe and clotted at room temperature for one hour in silicone coated glass tubes. The tubes were centrifuged at 4,000 g for 30 minutes at 4° C. to isolate the serum which is removed and stored at -20° C. The serum samples were assayed for serum iron via spectrophotometry using ferrozine reagent.
(§2) The tests were conducted in healthy menstruating female volunteers 21 to 45 years of age having normal hemoglobin and hematocrit valves. The subjects fasted overnight. Fifteen to 24 subjects were used in each study. Each study was conducted as a randomized crossover trial with the composition being administered at 8 a.m. at 3 to 4 day intervals. Blood was first taken in the fasting state. Then the preparation was administered using 50 ml of deionized water and the subjects remained fasting until the final blood sample was obtained. Serum iron levels were assayed in duplicate on a blind basis.
(§3) All valves were corrected using this valve for diurnal variation. Values for iron absorption were calculated from the increases in serum iron concentration measured 2 to 6 hours after iron ingestion.
(§4) In each case, the quantities of mineral stated are on the basis of the elemental metal as opposed to the weight of the entire salt.
(§5) This study involved 15 female subjects of child bearing age.
(§6) Again, 15 females of child bearing age were studied using ferrous fumarate alone and in combinations of calcium sulfate (CS), calcium carbonate (CC) and magnesium oxide (MX). The study involved 15 females of child bearing age with data obtained three hours after oral ingestion.
(§7) The data were obtained 3 hours after oral ingestion.

[2] = Iron absorption in healthy menstruating female volunteers (serum iron after oral ingestion, randomized crossover; Studies I-IV); conditions: 3 hours after oral ingestion; for effect of co-administered mineral salt on iron absorption: Study II, co-administered with ferrous fumarate
Method: as §1, §2, §3, §4, §5, §6, §7

Calculated mean values for iron absorption, Average [1]: 8.1 mg
SMILES: O=C([O-])/C=C/C(=O)[O-].[Fe+2] [Ferrous fumarate, ferrous fumarate, reference compound]

SMILES: O=S(=O)([O-])[O-].[Ca+2] [Plaster of paris, calcium sulfate]
effect of co-administered mineral salt on iron absorption [2]: does not seem to be inhibitory

SMILES: O=C(O)O [calcium carbonate]
effect of co-administered mineral salt on iron absorption [2]: additive inhibitory effects on iron absorption
effect of mineral component on bioavailability of the iron supplement ([2]; Study III, mineral components of the formulations): depressant effects

effect of mineral component on bioavailability of the iron supplement ([1]; po): depressant effects
SMILES: [O]=[Mg] [magnesium oxide]
effect of co-administered mineral salt on iron absorption ([1]; po): additive inhibitory effects on iron absorption
